In ChEMBL document CHEMBL1201862, “PubChem BioAssay data set” (2004):
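Cultured in 96-well plates, cells were exposed to test compound for 48 hours across five concentrations. Abbreviation: GI50, concentration required for 50% inhibition of growth.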 Active and inactive are the calls of the source. Rule as the data show it: active = GI50 up to about 1.1 µM and inactive = higher.

Experiments:
Assay in all cases: DTP human tumour cell line panel, 48 h
[1] = test system: SK-MEL-2
[2] = test system: SF-268
[3] = test system: UACC-62
[4] = test system: HT-29
[5] = test system: CAKI-1
[6] = test system: HOP-62
[7] = test system: SW-620
[8] = test system: HL-60
[9] = test system: M14
[10] = test system: RPMI-8226
[11] = test system: Malme-3M
[12] = test system: SK-OV-3
[13] = test system: OVCAR-8
[14] = test system: SF-295
[15] = test system: NCI-H460
[16] = test system: HCC 2998
[17] = test system: IGROV-1
[18] = test system: PC-3
[19] = test system: NCI-H226
[20] = test system: NCI-H522

Row | SMILES | GI50 [1] | GI50 [2] | GI50 [3] | GI50 [4] | GI50 [5] | GI50 [6] | GI50 [7] | GI50 [8] | GI50 [9] | GI50 [10] | GI50 [11] | GI50 [12] | GI50 [13] | GI50 [14] | GI50 [15] | GI50 [16] | GI50 [17] | GI50 [18] | GI50 [19] | GI50 [20]
1 | COc1ccc(/C=C2\C(=O)N(C3OC(COC(C)=O)C(OC(C)=O)C(OC(C)=O)C3OC(C)=O)c3ccccc3N=C2N)cc1 (configuration not stated) | 23.1 µM (inactive) | 32.5 µM (inactive) | 17.5 µM (inactive) | 18.8 µM (inactive) | 31.4 µM (inactive) | 28.9 µM (inactive) | 30.7 µM (inactive) | 18.2 µM (inactive) | 20.7 µM (inactive) | 16 µM (inactive) | 27.4 µM (inactive) | 27.6 µM (inactive) | 19.4 µM (inactive) | 21.9 µM (inactive) | 25.1 µM (inactive) | 21.8 µM (inactive) | 27.3 µM (inactive) | 23.7 µM (inactive) |  | 
2 | C=CCCC1(CC(Sc2ccccc2)P(=O)(c2ccccc2)c2ccccc2)OCCO1 (configuration not stated) | > 10 µM (inactive) | > 10 µM (inactive) | > 10 µM (inactive) | > 10 µM (inactive) | > 10 µM (inactive) | > 10 µM (inactive) | > 10 µM (inactive) | > 10 µM (inactive) | > 10 µM (inactive) | > 10 µM (inactive) | > 10 µM (inactive) | > 10 µM (inactive) | > 10 µM (inactive) | > 10 µM (inactive) | > 10 µM (inactive) | > 10 µM (inactive) | > 10 µM (inactive) | > 10 µM (inactive) | > 10 µM (inactive) | 
3 | COc1cc2ccnc([C@@H](OC(=O)c3ccccc3)c3ccc(OC)c(OC)c3OC)c2cc1OC | 60.4 µM (inactive) | 52 µM (inactive) | 56.4 µM (inactive) | 37.7 µM (inactive) | 30.3 µM (inactive) |  | 36.5 µM (inactive) | 41.8 µM (inactive) | 78.3 µM (inactive) | 54.3 µM (inactive) | 36.2 µM (inactive) | > 100 µM (inactive) | 51.9 µM (inactive) | 21.2 µM (inactive) | 33.6 µM (inactive) | 36.5 µM (inactive) | > 100 µM (inactive) |  | 35.5 µM (inactive) | 27.8 µM (inactive)
4 | Cn1c(=O)c2c(nc3sc4ccccc4c(=O)n32)n(C)c1=O | > 100 µM (inactive) | > 100 µM (inactive) | > 100 µM (inactive) | > 100 µM (inactive) | > 100 µM (inactive) | > 100 µM (inactive) | > 100 µM (inactive) | > 100 µM (inactive) | > 100 µM (inactive) | > 100 µM (inactive) |  | > 100 µM (inactive) | > 100 µM (inactive) | > 100 µM (inactive) | > 100 µM (inactive) | > 100 µM (inactive) | > 100 µM (inactive) | > 100 µM (inactive) | > 100 µM (inactive) | 
5 | CCCCCCCCCCCC(=O)CC(=O)c1c(O)cccc1O | 14.1 µM (inactive) | 16.4 µM (inactive) | 29.4 µM (inactive) | 17.5 µM (inactive) | > 10 µM (inactive) | 23.7 µM (inactive) | 17.1 µM (inactive) | 34.9 µM (inactive) | 18 µM (inactive) | 19.6 µM (inactive) | 15.5 µM (inactive) | 30.4 µM (inactive) | 16.6 µM (inactive) | 19.4 µM (inactive) | 19 µM (inactive) | 29 µM (inactive) | 18.6 µM (inactive) |  | 16.7 µM (inactive) | 22.2 µM (inactive)
6 | O=S(=O)(c1ccccc1)n1c(C(O)c2ccncc2)cc2ccccc21 (configuration not stated) | 52.6 µM (inactive) |  | 26.5 µM (inactive) | 44.6 µM (inactive) | 58.9 µM (inactive) | > 100 µM (inactive) | 32 µM (inactive) |  | 32.7 µM (inactive) | 27.1 µM (inactive) |  | 44.4 µM (inactive) | 50.6 µM (inactive) | 48.5 µM (inactive) | 26.2 µM (inactive) |  | 39.2 µM (inactive) | 35.9 µM (inactive) | 27 µM (inactive) | 
7 | O=C(O)C1CCC(=O)N1C(=O)C(Cl)c1ccccc1 (configuration not stated) | > 100 µM (inactive) | > 100 µM (inactive) | > 100 µM (inactive) | > 100 µM (inactive) | > 100 µM (inactive) | > 100 µM (inactive) | > 100 µM (inactive) | > 100 µM (inactive) | > 100 µM (inactive) | > 100 µM (inactive) | > 100 µM (inactive) | > 100 µM (inactive) | > 100 µM (inactive) | > 100 µM (inactive) | > 100 µM (inactive) | > 100 µM (inactive) | > 100 µM (inactive) |  | > 100 µM (inactive) | > 100 µM (inactive)
8 | COc1cc(C(C)c2cc3c(cc2OCCN)OCO3)cc(OC)c1OC (configuration not stated) | 64.3 µM (inactive) | 73.8 µM (inactive) | 35.5 µM (inactive) | > 100 µM (inactive) | > 100 µM (inactive) | > 100 µM (inactive) | > 100 µM (inactive) | 20 µM (inactive) | > 100 µM (inactive) | 37.3 µM (inactive) | > 100 µM (inactive) |  | > 100 µM (inactive) | > 100 µM (inactive) | > 100 µM (inactive) | > 100 µM (inactive) | > 100 µM (inactive) |  | 32.1 µM (inactive) | 78.5 µM (inactive)
9 | CCCCCCCCCC[C@@H](O)[C@@H]1CC[C@H]([C@H]2CC[C@@H]([C@@H](O)CCCCCCCCCC[C@H]3CC(CC(C)=O)C(=O)O3)O2)O1 (some centres not stated) | 14.4 µM (inactive) | 1.62 µM (inactive) | 10.7 µM (inactive) | 15.8 µM (inactive) | 16.7 µM (inactive) | 15.1 µM (inactive) | 13.5 µM (inactive) | < 0.01 µM (active) | 11.8 µM (inactive) | 1.01 µM (active) | 3.15 µM (inactive) | 17.3 µM (inactive) | 8.47 µM (inactive) |  | 15.7 µM (inactive) | 25.5 µM (inactive) | 12.8 µM (inactive) |  | 3.09 µM (inactive) | 0.0324 µM (active)
10 | COC(=O)/C(C#N)=C1\CCC(O)N1 (configuration not stated) | > 100 µM (inactive) | > 100 µM (inactive) | > 100 µM (inactive) | > 100 µM (inactive) | > 100 µM (inactive) | > 100 µM (inactive) | > 100 µM (inactive) | > 100 µM (inactive) | > 100 µM (inactive) | > 100 µM (inactive) | > 100 µM (inactive) | > 100 µM (inactive) | > 100 µM (inactive) | > 100 µM (inactive) | > 100 µM (inactive) | > 100 µM (inactive) | > 100 µM (inactive) |  | > 100 µM (inactive) | > 100 µM (inactive)
11 | O=C(/C(=C\C(=O)c1cccs1)c1ccsc1)c1ccc(Br)cc1 | > 100 µM (inactive) | > 100 µM (inactive) | > 100 µM (inactive) | 80 µM (inactive) | > 100 µM (inactive) | > 100 µM (inactive) | > 100 µM (inactive) | > 100 µM (inactive) | > 100 µM (inactive) | 71.1 µM (inactive) | 60.1 µM (inactive) | > 100 µM (inactive) | > 100 µM (inactive) | > 100 µM (inactive) | > 100 µM (inactive) | > 100 µM (inactive) | > 100 µM (inactive) | > 100 µM (inactive) | > 100 µM (inactive) | 
12 | CCOC(=O)c1c(C)cc(=O)n2c1[nH]c1ccccc12 | > 100 µM (inactive) |  | > 100 µM (inactive) | > 100 µM (inactive) | 17.2 µM (inactive) |  | > 100 µM (inactive) | > 100 µM (inactive) | > 100 µM (inactive) |  | > 100 µM (inactive) | > 100 µM (inactive) | > 100 µM (inactive) | 74.6 µM (inactive) | 14.1 µM (inactive) | 78.7 µM (inactive) | > 100 µM (inactive) | > 100 µM (inactive) | > 100 µM (inactive) | 
13 | CN(C)CCC[N+]1=Nc2cccc3cccc(c23)N1 | > 100 µM (inactive) | > 100 µM (inactive) | 34.1 µM (inactive) | 33.6 µM (inactive) | 37.1 µM (inactive) | > 100 µM (inactive) | 10.4 µM (inactive) | 18.2 µM (inactive) | 21.1 µM (inactive) | 22.8 µM (inactive) | > 100 µM (inactive) | > 100 µM (inactive) | 46.6 µM (inactive) | > 100 µM (inactive) | 35.6 µM (inactive) | 24.2 µM (inactive) | 31.4 µM (inactive) |  | > 100 µM (inactive) | 38 µM (inactive)
14 | Cc1c(C(=O)C/C(=N\O)C(=O)Nc2cc(Cl)c(Cl)cc2Cl)[n+]([O-])c2ccccc2[n+]1[O-] | 15.2 µM (inactive) | 17.8 µM (inactive) | 4.57 µM (inactive) | 15.2 µM (inactive) | 34 µM (inactive) | 23.3 µM (inactive) | 2.9 µM (inactive) | 16.1 µM (inactive) | 4.5 µM (inactive) | 9.33 µM (inactive) | 9.14 µM (inactive) | 43.7 µM (inactive) | 8.91 µM (inactive) | 25.9 µM (inactive) | 12.8 µM (inactive) | 7.06 µM (inactive) | 3.71 µM (inactive) |  | 17 µM (inactive) | 3.96 µM (inactive)
15 | O=C(CP(=O)(c1ccccc1)c1ccccc1)c1cccc(C(=O)CP(=O)(c2ccccc2)c2ccccc2)c1 | 49.9 µM (inactive) | 30.2 µM (inactive) | > 100 µM (inactive) | > 100 µM (inactive) | > 100 µM (inactive) | 34.4 µM (inactive) | > 100 µM (inactive) | > 100 µM (inactive) | > 100 µM (inactive) | > 100 µM (inactive) |  | 23.3 µM (inactive) | 43.1 µM (inactive) | 14.6 µM (inactive) | > 100 µM (inactive) | > 100 µM (inactive) | 55.2 µM (inactive) | > 100 µM (inactive) | 95.1 µM (inactive) | 
